Earlier results in patent publication US20250375548A1, “STERILIZATION PROCESS, SYSTEM AND PRODUCT INCLUDING MOLECULAR MOBILITY ENHANCER” (TEKDRY INTERNATIONAL, INC., priority 2019, published 2025).

Key:
[1] = @ 25° C.
[2] = 1,800 ppm at 44° C.

Row | SMILES | vapor pressure [1] | D-value [2]
1 | CCOCC [diethyl ether] | 520 mmHg | –
2 | CC(=O)OO [peracetic acid, reference compound] | 14.5 mmHg | –
3 | O=COO [performic acid] | 78 mmHg | lower than five
